Experimental findings from US5314911A, “Immunosuppressive agent” (Shionogi Seiyaku Kabushiki Kaisha, priority 1992, dated 1994) are described below.

In brackets after ≈: the same amount, converted by molar mass.

The subject of one data set is CCD-19Lu. Description: Inhibition of cell growth (MTT). Type of data set: cell-based. To be noted: Human normal lung, MEM, 2 × 10^4 cells/well, 3-4 days, read-out: IC50 (concentration inhibiting 50% cell growth). Here is the method:
(§1) Each cell defined in Table 3 was put in each well of a 96-well microtiter plate in one 0.1 ml-scale containing the defined number of cells and preincubated for one day under the same condition as in 1). PA-48153C (0.1 ml) was added to each well in such a manner that its final concentration was in a range from 0 to 5,000 ng/ml. After 3-4 days incubation, 25 μl of 6 mg/ml MTT [3-(4,5-dimethylthiazol-2-yl)-2,5-diphenyltetrazolium bromide] (Sigma) was added to each well. After further incubation at 37° C. for 4 hr under the same condition, formazan generated therein was dissolved by adding 50 μl of 20% […] (SDS) in 0.02N HCl and allowing to stand at 37° C. for 24 hr. An amount of formazan generated in proportion to the number of live cells was determined according to optical density analyzed by an immunoreader (Sanko Junyaku k.k.) equipped with a 570 nm-filter (reference to J. Immunol. Methods 65, 55-63 (1983)). IC50 (concentration inhibiting 50% cell growth) was calculated from the correlativity of PA-48153C concentration with optical density.

Another data set deals with P388. The experiment in a line: Inhibition of cell growth (MTT). Type of data set: cell-based. Conditions: Mouse leukemia, RPMI 1640, 5 × 10^2 cells/well, 3-4 days, read-out: IC50 (concentration inhibiting 50% cell growth). Here is the method:
as §1

The test system of data set [1] is Aspergillus fumigatus IFO 8866. The experiment in a line: Antifungal activity, liquid doubling dilution method. It is filed as cell-based. To be noted: IFO8866, Sabouraud broth, 24 hr, 37° C., read-out: minimum inhibitory concentration (MIC). How it is done: (§2) Antifungal activity of PA-48153C was determined according to the liquid doubling dilution method using Sabouraud or YNB broth.

A further data set has as its system Candida albicans KE-2. The data set is described as above. Type of data set: cell-based. To be noted: KE2, YNB broth, 48 hr, 37° C., read-out: minimum inhibitory concentration (MIC). How it is done:
as §2

Data set [2] relates to Con A reaction of mouse splenic cell. The experiment in a line: Effect on mitogenic responses (Con A reaction of mouse splenic mononuclear cells, [3H]-TdR incorporation). It is filed as cell-based, C3H/HeN mice. Here is the method: Splenic mononuclear cells (5×10^5) from C3H/HeN mice were suspended in 0.2 ml of RPMI 1640 medium containing 10% fetal bovine serum and 5×10^-5 M 2-mercaptoethanol (RPMI/FCS) and plated 96-well microtiter plates. The cells were cultured with 5 μg/ml of Concanavalin A (Con A; Type IV, Sigma Chemical Co.) for 72 hr at 37° C. in a humidified atmosphere of 5% carbon dioxide and 95% of air. PA-48153C was dissolved in dimethyl sulfoxide (DMSO) and added to the mitogenic response. The final concentration was not more than 100 ng/ml. Eighteen hours before harvesting, 0.5 μCi of tritiated thymidine ([^3 H]-TdR) was added to each well. The cells were harvested onto glass filter paper using a semi-automated multiple cell harvester, and [^3 H]-TdR incorporation was determined by liquid scintillation counter.

In a further data set the test system is LU-99. Description: Inhibition of cell growth (MTT). It is filed as cell-based, Human. Here is the method: as §1
The nature of a further data set: Solubility. It is filed as physicochemical.
A further data set relates to tumor cells. Description: Inhibition of cell growth (MTT), summary over tumor cells. Type of data set: cell-based. How it is done: as §1
Data set [3] deals with allo-MLR (C3H/HeN mouse splenic mononuclear cells with C57BL/6 mouse splenic mononuclear cells). Description: Allogenic mixed lymphocyte reaction (allo-MLR) in vitro, [3H]-TdR incorporation. It is filed as cell-based. Conditions: 144 h, 6 days, read-out: IC50 value inhibiting allo MLR. How it is done: Induction and assay of allo-MLR were performed in 96 well microtiter plates. C3H/HeN (H-2^k) mouse splenic mononuclear cells (5×10^5 cells in 0.1 ml of RPMI/FCS) were mixed with an equal volume of mitomycin C-treated (50 μg/ml, 37° C., 30 min, washed 3 times with RPMI 1640) C57BL/6 (H-2^b) mouse splenic mononuclear cells (5×10^5 cells) and incubated with RPMI/FCS in 96 well microtiter plate for 6 days under the same condition as described in 1). PA-48153C was added to the allo-MLR in such a manner that its final concentration was not more than 100 ng/ml. Eighteen hours before harvesting, 0.5 μCi of [^3 H]-TdR was pulsed to each well. The cells were harvested and assayed for allo-MLR by their ability to uptake [^3 H]-TdR incorporation.

Another data set has as its system P388/ADM. The experiment in a line: Inhibition of cell growth (MTT). It is filed as cell-based, Mouse. Here is the method: as §1

Consider `C/C=C/C[C@H](C)[C@@H](OC)[C@@H](C)[C@H](O)C[C@H]1OC(=O)C=C[C@H]1CC` (relative stereo) [PA-48153C, (5R*,6R*)-5-ethyl-5,6-dihydro-6-[(E)-(2R*,3S*,4R*,5S*)-2-hydroxy-4-methoxy-3,5-dimethyl-7-nonenyl]-2H-pyran-2-one], for which the IC50 with CCD-19Lu is above 5 µg/mL; in the data set on P388, 1.8 ng/mL (≈ 0.00555 µM); in data set [2] (Mus musculus, Con A 5 μg/ml, 72 hr), 4.8 ng/mL (≈ 0.0148 µM); in the data set with LU-99 (Lu-99, Human giant-cell carcinoma of lung, RPMI 1640, 2 × 10^3 cells/well, 3-4 days, read-out: IC50 (concentration inhibiting 50% cell growth)) it was 2.2 ng/mL (≈ 0.00678 µM); in data set [3] it was 3.1 ng/mL (≈ 0.00955 µM); in the data set with P388/ADM (P388/ADM, Mouse leukemia (multi-resistant carcinoma), RPMI 1640, 5 × 10^2 cells/well, 3-4 days, read-out: IC50 (concentration inhibiting 50% cell growth)), 4.8 ng/mL (≈ 0.0148 µM). The MIC in data set [1] worked out at 12.5 µg/mL (≈ 38.5 µM); in the data set on Candida albicans KE-2, 50 µg/mL (≈ 154 µM). In data set [2] (Mus musculus, PA-48153C 1.7 ng/ml, Con A 5 μg/ml, 72 hr), this compound yielded an inhibition at 0.0017 µg/mL of 83.8%. Further, the inhibition at 0.0056 µg/mL in data set [2] (Mus musculus, PA-48153C 5.6 ng/ml, Con A 5 μg/ml, 72 hr) was 61.6%. In data set [2] (Mus musculus, PA-48153C 50.0 ng/ml, Con A 5 μg/ml, 72 hr), this compound returned an inhibition at 0.05 µg/mL of 94%. For the same compound, the “Radioactivity cpm ± SD” value in data set [2] (PA-48153C 1.7 ng/ml, Con A 5 μg/ml, 72 hr) was 10,200 ± 451 cpm; in data set [2] (PA-48153C 5.6 ng/ml, Con A 5 μg/ml, 72 hr), 24,200 ± 883 cpm; in data set [2] (PA-48153C 50.0 ng/ml, Con A 5 μg/ml, 72 hr), 3,780 ± 141 cpm. Further, in data set [2] (splenic mononuclear cell from normal mice), the “inhibition of proliferative response to Con A (in words)” value is given as “inhibited the proliferative response of splenic mononuclear cell from normal mice to Con A in a dose-dependent fashion”. The “IC50 to normal lung cell CCD-19Lu relative to that to giant-cell carcinoma of lung Lu-99” value in the data set on LU-99 (ratio CCD-19Lu / Lu-99) is recorded as “at least 2,500 times”. Also, the “Solubility in organic solvents” value in the data set “Solubility” (n-hexane, ethyl acetate, chloroform, methanol) was “soluble in n-hexane, ethyl acetate, chloroform, methanol”. Besides, the Solubility in water entry in “Solubility” (water) was “insoluble in water”. Besides, the “growth inhibition of tumor cells (in words)” value in the data set with tumor cells was “strongly inhibits the growth of tumor cells”. The “growth inhibition of multi-resistant carcinoma P388/ADM (in words)” value with P388/ADM is “strongly inhibits the growth of multi-resistant carcinoma P388/ADM”.

The inhibition is the percentage by which the read-out fell short of the control. Low readings indicate a response near the control, high ones a response far below the control.
